From patent publication US8247211B2, “Glycopeptide antibiotics” (American Cyanamid Company, priority 2001, dated 2012)
≈ marks a conversion by molar mass, not a printed value.

Legend:
Test in all cases: In vitro antibacterial evaluation: minimum inhibitory concentration (MIC), broth dilution method
Assay type in all cases: cell-based
Enterococcus sp. = system: Enterococcus sp.
Outline: (§1)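 NCCLS M7-A2 broth dilution; Muller-Hinton II […]; 5×10^5 CFU/mL; 64-0.06 μg/mL. MIC = lowest concentration with no growth.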

Escherichia coli = details: for MIC Escherichia coli (ATCC 25922): strain ATCC 25922; for MIC Escherichia coli (GC 4559): strain GC 4559; for MIC Escherichi coli (GC 4560): strain GC 4560
Outline: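 NCCLS M7-A2 broth dilution with Mueller-Hinton II, testing 64-0.06 μg/mL antibiotic against 5×10^5 CFU/mL inocula. Test strains include recent methicillin-, penicillin- or vancomycin-resistant clinical isolates. MIC is the lowest concentration preventing growth.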

Staphylococcus sp. = details: broth dilution, 18 hours at 35° C.
Outline: as §1

Streptococcus sp. = system: Streptococcus sp.
Outline: as §1

[1] = broth dilution, inoculum 5×10^5 CFU/mL, 18 hours at 35° C.

COc1cccc(C2OC3C(OC4C(CO)OC(Oc5ccc(CC6NC(=O)C(C(C)c7ccccc7)NC(=O)CNC(=O)C(CO)NC(=O)C(C(O)C7CNC(=N)N7C7OC(CO)C(O)C(O)C7O)NC(=O)C(C(O)C7CNC(=N)N7)NC6=O)cc5)C(O)C4O)OC(CO)C(O)C3O2)c1 (single isomer, unassigned) [Example 137a, Cyclo[glycyl-β-methylphenylalanyl-O-[4-O-[2,3-O-(3-methoxybenzylidene)hexopyranosyl]-hexopyranosyl]tyrosyl-3-(2-iminoimidazolidin-4-yl)seryl-3-(3-hexopyranosyl-2-iminoimidazolidin-4-yl)serylseryl]]
MIC Enterococcus faecalis (ATCC 29212) (Enterococcus sp.; strain ATCC 29212): >64 µg/mL | MIC Enterococcus faecalis (GC 2242) (Enterococcus sp.; strain GC 2242): >64 µg/mL | MIC Enterococcus faecium (GC 2243) (Enterococcus sp.; strain GC 2243): >64 µg/mL | MIC Enterococcus faecalis (GC 2691) (Enterococcus sp.; strain GC 2691): >64 µg/mL | MIC Enterococcus faecalis (GC 3059) (Enterococcus sp.; strain GC 3059): >64 µg/mL | MIC Enterococcus faecalis (GC 4552) (Enterococcus sp.; strain GC 4552): >64 µg/mL | MIC Enterococcus faecalis (GC 4553) (Enterococcus sp.; strain GC 4553): >64 µg/mL | MIC Enterococcus faecalis (GC 4554) (Enterococcus sp.; strain GC 4554): >64 µg/mL | MIC Enterococcus faecium (GC 4556) (Enterococcus sp.; strain GC 4556): >64 µg/mL | MIC Enterococcus faecium (GC 4557) (Enterococcus sp.; strain GC 4557): 16 µg/mL (≈ 11.3 µM) | MIC Enterococcus avium (GC 4558) (Enterococcus sp.; strain GC 4558): 64 µg/mL (≈ 45.3 µM) | MIC Enterococcus faecalis (GC 6189) (Enterococcus sp.; strain GC 6189): >64 µg/mL | MIC Escherichia coli (ATCC 25922) (Escherichia coli): >64 µg/mL | MIC Escherichia coli (GC 4559) (Escherichia coli): >64 µg/mL | MIC Escherichi coli (GC 4560) (Escherichia coli): 8 µg/mL (≈ 5.66 µM) | MIC Coagulase Negative Staphylococcus (GC 4547) (Staphylococcus sp.; 5×10^5 CFU/mL): 16 µg/mL (≈ 11.3 µM) | MIC Coagulase Negative Staphylococcus (GC 4548) (Staphylococcus sp.; 5×10^5 CFU/mL): 8 µg/mL (≈ 5.66 µM) | MIC Coagulase Negative Staphylococcus (GC 4549) (Staphylococcus sp.; 5×10^5 CFU/mL): 8 µg/mL (≈ 5.66 µM) | MIC Coagulase Negative Staphylococcus (GC 4551) (Staphylococcus sp.; 5×10^5 CFU/mL): 16 µg/mL (≈ 11.3 µM) | MIC Coagulase Negative Staphylococcus (GC 6257) (Staphylococcus sp.; 5×10^5 CFU/mL): 8 µg/mL (≈ 5.66 µM) | MIC Staphylococcus aureus (ATCC 29213) (Staphylococcus sp.; 5×10^5 CFU/mL): 32 µg/mL (≈ 22.6 µM) | MIC Staphylococcus aureus (GC 1131) (Staphylococcus sp.; 5×10^5 CFU/mL): 32 µg/mL (≈ 22.6 µM) | MIC Staphylococcus aureus (GC 3051) (Staphylococcus sp.; 5×10^5 CFU/mL): 32 µg/mL (≈ 22.6 µM) | MIC Staphylococcus aureus (GC 3053) (Staphylococcus sp.; 5×10^5 CFU/mL): 32 µg/mL (≈ 22.6 µM) | MIC Staphylococcus aureus (GC 4541) (Staphylococcus sp.; 5×10^5 CFU/mL): 16 µg/mL (≈ 11.3 µM) | MIC Staphylococcus aureus (GC 4542) (Staphylococcus sp.; 5×10^5 CFU/mL): 32 µg/mL (≈ 22.6 µM) | MIC Staphylococcus aureus (GC 4544) (Staphylococcus sp.; 5×10^5 CFU/mL): 32 µg/mL (≈ 22.6 µM) | MIC Staphylococcus aureus (GC 4545) (Staphylococcus sp.; 5×10^5 CFU/mL): 32 µg/mL (≈ 22.6 µM) | MIC Staphylococcus aureus-SMITH (GC 4543) (Staphylococcus sp.; 5×10^5 CFU/mL): 16 µg/mL (≈ 11.3 µM) | MIC Staphylococcus haemolyticus (GC 4546) (Staphylococcus sp.; 5×10^5 CFU/mL): 16 µg/mL (≈ 11.3 µM) | MIC Staphylococcus aureus (ATCC 29213) (Staphylococcus sp.; strain ATCC 29213): 32 µg/mL (≈ 22.6 µM) | MIC Staphylococcus aureus (GC 1131) (Staphylococcus sp.; strain GC 1131): 32 µg/mL (≈ 22.6 µM) | MIC Staphylococcus aureus (GC 3051) (Staphylococcus sp.; strain GC 3051): 32 µg/mL (≈ 22.6 µM) | MIC Staphylococcus aureus (GC 3053) (Staphylococcus sp.; strain GC 3053): 32 µg/mL (≈ 22.6 µM) | MIC Staphylococcus aureus (GC 4541) (Staphylococcus sp.; strain GC 4541): 16 µg/mL (≈ 11.3 µM) | MIC Staphylococcus aureus (GC 4542) (Staphylococcus sp.; strain GC 4542): 32 µg/mL (≈ 22.6 µM) | MIC Staphylococcus aureus-SMITH (GC 4543) (Staphylococcus sp.; strain GC 4543): 16 µg/mL (≈ 11.3 µM) | MIC Staphylococcus aureus (GC 4544) (Staphylococcus sp.; strain GC 4544): 32 µg/mL (≈ 22.6 µM) | MIC Staphylococcus aureus (GC 4545) (Staphylococcus sp.; strain GC 4545): 32 µg/mL (≈ 22.6 µM) | MIC Staphylococcus haemolyticus (GC 4546) (Staphylococcus sp.; strain GC 4546): 16 µg/mL (≈ 11.3 µM) | MIC Coagulase Negative Staphylococcus (GC 4547) (Staphylococcus sp.; strain GC 4547): 16 µg/mL (≈ 11.3 µM) | MIC Coagulase Negative Staphylococcus (GC 4548) (Staphylococcus sp.; strain GC 4548): 8 µg/mL (≈ 5.66 µM) | MIC Coagulase Negative Staphylococcus (GC 4549) (Staphylococcus sp.; strain GC 4549): 8 µg/mL (≈ 5.66 µM) | MIC Coagulase Negative Staphylococcus (GC 4551) (Staphylococcus sp.; strain GC 4551): 16 µg/mL (≈ 11.3 µM) | MIC Coagulase Negative Staphylococcus (GC 6257) (Staphylococcus sp.; strain GC 6257): 8 µg/mL (≈ 5.66 µM) | MIC Streptococcus pneumoniae (ATCC 6301) (Streptococcus sp.; strain ATCC 6301): 8 µg/mL (≈ 5.66 µM) | MIC Streptococcus pneumoniae (GC 1894) (Streptococcus sp.; strain GC 1894): 4 µg/mL (≈ 2.83 µM) | MIC Streptococcus pyogenes (GC 4563) (Streptococcus sp.; strain GC 4563): 16 µg/mL (≈ 11.3 µM) | MIC Streptococcus agalactiae (GC 4564) (Streptococcus sp.; strain GC 4564): 16 µg/mL (≈ 11.3 µM) | MIC Streptococcus pneumoniae (GC 4565) (Streptococcus sp.; strain GC 4565): 16 µg/mL (≈ 11.3 µM)

Cyclo[glycyl-β-methylphenylalanyl-O-[4-O-[4,6-O-β-(carboxymethoxy)benzylidene]hexopyranosyl]hexonyranosyl]tyrosyl-3-(2-iminoimidazolidin-4-yl)seryl-3-(3-hexopyranosyl-2-iminoimidazolidin-4-yl)serylseryl] [Example 166]
MIC Enterococcus avium (GC 4558) (Enterococcus sp.; [1]): 32 µg/mL | MIC Enterococcus faecalis (ATCC 29212) (Enterococcus sp.; [1]): 32 µg/mL | MIC Enterococcus faecalis (GC 2242) (Enterococcus sp.; [1]): 32 µg/mL | MIC Enterococcus faecalis (GC 6189) (Enterococcus sp.; [1]): 32 µg/mL | MIC Enterococcus faecium (GC 2243) (Enterococcus sp.; [1]): 32 µg/mL | MIC Enterococcus faecium (GC 4556) (Enterococcus sp.; [1]): 32 µg/mL | MIC Enterococcus faecalis (ATCC 29212) (Enterococcus sp.; strain ATCC 29212): 32 µg/mL | MIC Enterococcus faecalis (GC 2242) (Enterococcus sp.; strain GC 2242): 32 µg/mL | MIC Enterococcus faecium (GC 2243) (Enterococcus sp.; strain GC 2243): 32 µg/mL | MIC Enterococcus faecium (GC 4556) (Enterococcus sp.; strain GC 4556): 32 µg/mL | MIC Enterococcus avium (GC 4558) (Enterococcus sp.; strain GC 4558): 32 µg/mL | MIC Enterococcus faecalis (GC 6189) (Enterococcus sp.; strain GC 6189): 32 µg/mL | MIC Escherichia coli (ATCC 25922) (Escherichia coli): >64 µg/mL | MIC Escherichia coli (GC 4559) (Escherichia coli): >64 µg/mL | MIC Escherichi coli (GC 4560) (Escherichia coli): 2 µg/mL | MIC Coagulase Negative Staphylococcus (GC 4547) (Staphylococcus sp.; 5×10^5 CFU/mL): 4 µg/mL | MIC Coagulase Negative Staphylococcus (GC 4548) (Staphylococcus sp.; 5×10^5 CFU/mL): 4 µg/mL | MIC Coagulase Negative Staphylococcus (GC 4549) (Staphylococcus sp.; 5×10^5 CFU/mL): 4 µg/mL | MIC Coagulase Negative Staphylococcus (GC 6257) (Staphylococcus sp.; 5×10^5 CFU/mL): 4 µg/mL | MIC Staphylococcus aureus (ATCC 29213) (Staphylococcus sp.; 5×10^5 CFU/mL): 8 µg/mL | MIC Staphylococcus aureus (GC 1131) (Staphylococcus sp.; 5×10^5 CFU/mL): 8 µg/mL | MIC Staphylococcus aureus (GC 4541) (Staphylococcus sp.; 5×10^5 CFU/mL): 8 µg/mL | MIC Staphylococcus aureus-SMITH (GC 4543) (Staphylococcus sp.; 5×10^5 CFU/mL): 4 µg/mL | MIC Staphylococcus aureus (ATCC 29213) (Staphylococcus sp.; strain ATCC 29213): 8 µg/mL | MIC Staphylococcus aureus (GC 1131) (Staphylococcus sp.; strain GC 1131): 8 µg/mL | MIC Staphylococcus aureus (GC 4541) (Staphylococcus sp.; strain GC 4541): 8 µg/mL | MIC Staphylococcus aureus-SMITH (GC 4543) (Staphylococcus sp.; strain GC 4543): 4 µg/mL | MIC Coagulase Negative Staphylococcus (GC 4547) (Staphylococcus sp.; strain GC 4547): 4 µg/mL | MIC Coagulase Negative Staphylococcus (GC 4548) (Staphylococcus sp.; strain GC 4548): 4 µg/mL | MIC Coagulase Negative Staphylococcus (GC 4549) (Staphylococcus sp.; strain GC 4549): 4 µg/mL | MIC Coagulase Negative Staphylococcus (GC 6257) (Staphylococcus sp.; strain GC 6257): 4 µg/mL | MIC Streptococcus pneumoniae (ATCC 6301) (Streptococcus sp.; [1]): 1 µg/mL | MIC Streptococcus pneumoniae (GC 1894) (Streptococcus sp.; [1]): 1 µg/mL | MIC Streptococcus pneumoniae (ATCC 6301) (Streptococcus sp.; strain ATCC 6301): 1 µg/mL | MIC Streptococcus pneumoniae (GC 1894) (Streptococcus sp.; strain GC 1894): 1 µg/mL
